Assay results taken from PMC5430744 (Scientific Reports, 2017).
Where two headings read alike, the source gives them in different places.

Legend:
Smon0123 = Smon0123 (Streptobacillus moniliformis, UniProt D1AWE0); test: X-ray crystal structure; tryptophan fluorescence titration; DSF; assay type: binding; design: gene Smon_0123; Smon0123 (N-18/C-5) in the crystal; recombinant Smon0123 in solution
Smon0127 = molecular target: T1, Smon0127 (Streptobacillus moniliformis, UniProt D1AWE4); test: UGL enzyme assay, decrease of absorbance at […] nm; assay type: biochemical
T1 construct: gene Smon_0127; recombinant Smon0127

[1] = molecular target: T2, Smon0121-Smon0122(10xHis)/Smon0120-Smon0120 (Streptobacillus moniliformis, UniProt D1AWD7); details: detergent-solubilised transporter
T2 construct: gene Smon_0120
T2 sequence (D1AWD7 entry or part of it): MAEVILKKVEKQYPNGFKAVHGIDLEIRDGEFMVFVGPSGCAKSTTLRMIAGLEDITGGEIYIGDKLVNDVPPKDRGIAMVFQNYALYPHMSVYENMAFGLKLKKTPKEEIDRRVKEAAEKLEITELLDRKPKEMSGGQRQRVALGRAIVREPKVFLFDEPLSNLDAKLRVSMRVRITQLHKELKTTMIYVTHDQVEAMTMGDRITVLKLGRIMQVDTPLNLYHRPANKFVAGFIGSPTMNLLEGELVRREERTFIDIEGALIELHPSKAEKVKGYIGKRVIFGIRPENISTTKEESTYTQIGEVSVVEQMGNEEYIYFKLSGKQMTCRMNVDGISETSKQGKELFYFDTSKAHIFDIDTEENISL
T2 sequence (D1AWD8 entry or part of it, further chain): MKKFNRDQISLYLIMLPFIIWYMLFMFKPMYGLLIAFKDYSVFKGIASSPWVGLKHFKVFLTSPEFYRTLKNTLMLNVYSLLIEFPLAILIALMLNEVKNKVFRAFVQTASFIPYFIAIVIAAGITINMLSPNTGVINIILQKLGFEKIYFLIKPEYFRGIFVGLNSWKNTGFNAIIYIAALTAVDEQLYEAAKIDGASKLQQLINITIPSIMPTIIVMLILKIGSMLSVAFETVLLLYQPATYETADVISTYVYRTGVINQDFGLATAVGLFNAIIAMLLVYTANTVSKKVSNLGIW
T2 sequence (D1AWD9 entry or part of it, further chain): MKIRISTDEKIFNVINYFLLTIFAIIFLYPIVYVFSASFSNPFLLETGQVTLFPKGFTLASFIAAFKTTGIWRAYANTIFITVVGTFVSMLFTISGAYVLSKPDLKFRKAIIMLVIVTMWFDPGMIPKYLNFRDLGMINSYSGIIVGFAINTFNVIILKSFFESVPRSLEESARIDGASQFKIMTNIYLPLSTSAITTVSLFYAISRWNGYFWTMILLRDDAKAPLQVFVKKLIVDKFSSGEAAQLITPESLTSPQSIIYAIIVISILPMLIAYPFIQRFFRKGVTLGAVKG

T1 sequence (D1AWE4 entry or part of it): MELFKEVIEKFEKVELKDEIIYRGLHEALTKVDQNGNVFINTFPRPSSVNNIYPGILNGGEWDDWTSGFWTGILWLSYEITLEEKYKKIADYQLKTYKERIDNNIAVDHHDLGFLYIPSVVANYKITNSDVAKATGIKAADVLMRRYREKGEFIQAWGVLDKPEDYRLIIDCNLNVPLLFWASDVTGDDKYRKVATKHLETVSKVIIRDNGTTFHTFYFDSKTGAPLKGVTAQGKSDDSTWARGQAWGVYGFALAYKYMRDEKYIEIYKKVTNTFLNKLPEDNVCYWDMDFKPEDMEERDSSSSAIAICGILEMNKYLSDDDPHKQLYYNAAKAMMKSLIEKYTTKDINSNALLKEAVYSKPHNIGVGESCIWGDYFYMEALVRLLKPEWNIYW
Sequence of Smon0123 (D1AWE0 entry or part of it): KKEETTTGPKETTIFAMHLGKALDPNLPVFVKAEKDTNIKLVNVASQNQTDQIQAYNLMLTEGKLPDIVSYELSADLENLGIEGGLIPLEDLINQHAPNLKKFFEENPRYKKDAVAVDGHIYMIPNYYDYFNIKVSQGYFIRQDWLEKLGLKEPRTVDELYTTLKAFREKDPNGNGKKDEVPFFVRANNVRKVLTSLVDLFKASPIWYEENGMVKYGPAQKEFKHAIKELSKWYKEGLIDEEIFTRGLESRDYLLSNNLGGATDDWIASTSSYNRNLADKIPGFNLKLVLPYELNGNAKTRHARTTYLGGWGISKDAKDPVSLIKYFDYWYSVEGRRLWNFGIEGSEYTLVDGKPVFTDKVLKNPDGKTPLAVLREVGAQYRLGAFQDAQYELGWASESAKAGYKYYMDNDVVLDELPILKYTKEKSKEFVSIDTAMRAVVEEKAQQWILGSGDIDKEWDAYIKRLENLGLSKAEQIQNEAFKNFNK

CC(=O)N[C@H]1C(O)O[C@H](COS(=O)(=O)O)[C@H](O)[C@@H]1O[C@@H]1OC(C(=O)O)=C[C@H](O)[C@H]1O (stereo partly shown) [CΔ6S]
Kd (Smon0123): 5GX6 for Smon0123/C∆4S, 5GX7 for Smon0123/C∆6S
UGL enzyme assay, decrease of absorbance at 235 nm (Smon0127): 0.272 units/mg

CC(=O)N[C@H]1C(O)O[C@H](CO)[C@@H](O)[C@@H]1O[C@@H]1OC(C(=O)O)=C[C@H](O)[C@H]1O (stereo partly shown) [ΔHA]
UGL enzyme assay, decrease of absorbance at 235 nm (Smon0127): 2.26 units/mg

CC(=O)N[C@H]1C(O)O[C@H](CO)[C@H](O)[C@@H]1O[C@@H]1OC(C(=O)O)=C[C@H](O)[C@H]1O (stereo partly shown) [CΔ0S]
Kd (Smon0123; read-out: Kd): 635 ± 122 nM
UGL enzyme assay, decrease of absorbance at 235 nm (Smon0127): 4.46 units/mg

Nc1ncnc2c1ncn2[C@@H]1O[C@H](COP(=O)(O)OP(=O)(O)OP(=O)(O)O)[C@@H](O)[C@H]1O [ATP]
phosphate release from ATP [1]: in the soluble form with detergents exhibited ATPase activity

CC(=O)N[C@H]1C(O)O[C@H](CO)[C@H](OS(=O)(=O)O)[C@@H]1O[C@@H]1OC(C(=O)O)=C[C@H](O)[C@H]1O (stereo partly shown) [CΔ4S]
UGL enzyme assay, decrease of absorbance at 235 nm (Smon0127): 0.342 units/mg
